Patent EP4745135A1 (Gluetacs Therapeutics (Shanghai) Co., Ltd., priority 2023, dated 2025)

Experiments:
[1] = target: T1, human Cereblon WT GST-tagged protein (Homo sapiens, UniProt Q96SW2); assay: CRBN-binding affinity, HTRF (CEREBLON BINDING kit); details: for inhibition at 0.5 µM: read-out: Inhibition Rate at 0.5 µM (%); for inhibition at 2 µM: read-out: Inhibition Rate at 2 µM (%)
T1 construct: purchased CISBIO 64BDCRBNPEH

[2] = system: Human myeloid monocytic leukemia cell (MV-4-11); assay: Tumor cell proliferation inhibition (CellTiter-Meiluncell luminescent cell viability assay); details: MV4-11, 96 h; for inhibition at 0.01 µM: read-out: Inhibition Rate at 10 nM (%); for inhibition at 0.5 µM: read-out: Inhibition Rate at 500 nM (%)
WEE1 = target: T2, WEE1 (Homo sapiens, UniProt P30291+Q96SW2); assay: Western blot, degradation of substrate protein in hPBMCs; assay type: cell-based; details: Western blot, 24 hours of compound treatment, compounds tested at 50 nM and 500 nM (concentration for the table not stated)
T2 construct: effects of the compounds of the present disclosure on the expression of target proteins in cells; endogenous in cells; host or cells: human PBMCs (Milecell Biotechnologies)

IKZF2 = target: T3, IKZF2 (Homo sapiens, UniProt Q96SW2+Q9UKS7); assay: as above; assay type: cell-based; details: Western blot, 24 hours of compound treatment, compounds tested at 50 nM and 500 nM (concentration for the table not stated)
T3 construct: effects of the compounds of the present disclosure on the expression of target proteins in cells; endogenous in cells; host or cells: human PBMCs (Milecell Biotechnologies)

IKZF3 = target: T4, IKZF3 (Homo sapiens, UniProt Q96SW2+Q9UKT9); assay: as above; assay type: cell-based; details: Western blot, 24 hours of compound treatment, compounds tested at 50 nM and 500 nM (concentration for the table not stated)
T4 construct: effects of the compounds of the present disclosure on the expression of target proteins in cells; endogenous in cells; host or cells: human PBMCs (Milecell Biotechnologies)

CK1α = target: T5, CK1α (Homo sapiens, UniProt P48729+Q96SW2); assay: as above; assay type: cell-based; details: Western blot, 24 hours of compound treatment, compounds tested at 50 nM and 500 nM (concentration for the table not stated)
T5 construct: effects of the compounds of the present disclosure on the expression of target proteins in cells; endogenous in cells; host or cells: human PBMCs (Milecell Biotechnologies)

IKZF1 = target: T6, IKZF1 (Homo sapiens, UniProt Q13422+Q96SW2); assay: as above; assay type: cell-based; details: Western blot, 24 hours of compound treatment, compounds tested at 50 nM and 500 nM (concentration for the table not stated)
T6 construct: effects of the compounds of the present disclosure on the expression of target proteins in cells; endogenous in cells; host or cells: human PBMCs (Milecell Biotechnologies)

GSPT1 = assay: as above; assay type: cell-based, Human; details: Western blot, 24 hours of compound treatment, compounds tested at 50 nM and 500 nM (concentration for the table not stated)

T5 sequence (P48729 whole entry): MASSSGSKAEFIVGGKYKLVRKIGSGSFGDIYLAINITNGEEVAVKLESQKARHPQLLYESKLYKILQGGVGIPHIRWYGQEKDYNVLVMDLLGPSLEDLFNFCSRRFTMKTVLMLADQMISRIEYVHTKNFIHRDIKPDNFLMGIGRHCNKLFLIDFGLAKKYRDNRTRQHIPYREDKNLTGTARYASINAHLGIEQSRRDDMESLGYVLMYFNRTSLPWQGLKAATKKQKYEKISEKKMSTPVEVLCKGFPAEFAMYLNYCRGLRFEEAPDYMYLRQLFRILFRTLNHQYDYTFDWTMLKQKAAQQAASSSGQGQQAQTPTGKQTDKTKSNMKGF
T5 sequence (Q96SW2 whole entry): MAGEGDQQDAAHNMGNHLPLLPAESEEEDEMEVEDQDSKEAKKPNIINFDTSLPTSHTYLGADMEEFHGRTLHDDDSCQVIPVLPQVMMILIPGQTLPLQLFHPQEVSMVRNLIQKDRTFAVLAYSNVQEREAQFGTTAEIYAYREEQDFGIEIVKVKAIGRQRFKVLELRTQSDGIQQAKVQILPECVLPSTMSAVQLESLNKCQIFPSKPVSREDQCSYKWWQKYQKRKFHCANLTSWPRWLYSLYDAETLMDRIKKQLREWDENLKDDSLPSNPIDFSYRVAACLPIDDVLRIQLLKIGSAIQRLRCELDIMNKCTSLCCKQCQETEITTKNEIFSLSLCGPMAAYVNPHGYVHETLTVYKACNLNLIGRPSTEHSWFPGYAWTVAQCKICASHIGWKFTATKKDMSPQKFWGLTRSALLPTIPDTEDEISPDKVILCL
T5 sequence (Q16531 whole entry partner): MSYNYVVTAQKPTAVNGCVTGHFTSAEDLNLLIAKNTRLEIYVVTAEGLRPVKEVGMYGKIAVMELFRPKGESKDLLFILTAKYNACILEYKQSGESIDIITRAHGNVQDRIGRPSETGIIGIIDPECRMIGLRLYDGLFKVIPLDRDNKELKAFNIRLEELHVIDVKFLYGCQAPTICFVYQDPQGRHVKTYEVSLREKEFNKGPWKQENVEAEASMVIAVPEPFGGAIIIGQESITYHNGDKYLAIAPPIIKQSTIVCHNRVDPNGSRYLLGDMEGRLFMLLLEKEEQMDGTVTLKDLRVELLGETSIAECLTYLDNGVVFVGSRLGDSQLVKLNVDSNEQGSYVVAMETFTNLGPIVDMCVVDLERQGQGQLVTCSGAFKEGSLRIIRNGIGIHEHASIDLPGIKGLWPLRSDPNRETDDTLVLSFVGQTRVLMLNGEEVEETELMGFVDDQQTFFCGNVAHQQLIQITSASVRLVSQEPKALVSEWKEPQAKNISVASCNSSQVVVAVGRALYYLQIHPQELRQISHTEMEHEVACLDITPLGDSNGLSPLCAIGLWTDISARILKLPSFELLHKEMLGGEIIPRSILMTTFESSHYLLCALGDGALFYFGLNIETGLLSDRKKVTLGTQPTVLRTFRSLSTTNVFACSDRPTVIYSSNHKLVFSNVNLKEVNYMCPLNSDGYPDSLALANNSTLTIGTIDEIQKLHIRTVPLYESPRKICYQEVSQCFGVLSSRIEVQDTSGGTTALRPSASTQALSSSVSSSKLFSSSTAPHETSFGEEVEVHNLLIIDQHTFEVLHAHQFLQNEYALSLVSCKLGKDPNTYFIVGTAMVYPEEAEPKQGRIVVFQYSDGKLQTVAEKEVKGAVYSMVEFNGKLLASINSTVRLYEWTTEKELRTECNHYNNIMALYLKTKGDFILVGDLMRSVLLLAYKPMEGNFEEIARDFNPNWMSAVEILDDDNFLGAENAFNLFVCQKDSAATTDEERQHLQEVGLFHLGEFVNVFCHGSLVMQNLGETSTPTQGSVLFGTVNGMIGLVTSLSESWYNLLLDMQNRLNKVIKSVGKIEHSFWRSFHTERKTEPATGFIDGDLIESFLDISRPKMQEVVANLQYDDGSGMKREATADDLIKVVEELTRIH
T3 sequence (Q9UKS7 whole entry): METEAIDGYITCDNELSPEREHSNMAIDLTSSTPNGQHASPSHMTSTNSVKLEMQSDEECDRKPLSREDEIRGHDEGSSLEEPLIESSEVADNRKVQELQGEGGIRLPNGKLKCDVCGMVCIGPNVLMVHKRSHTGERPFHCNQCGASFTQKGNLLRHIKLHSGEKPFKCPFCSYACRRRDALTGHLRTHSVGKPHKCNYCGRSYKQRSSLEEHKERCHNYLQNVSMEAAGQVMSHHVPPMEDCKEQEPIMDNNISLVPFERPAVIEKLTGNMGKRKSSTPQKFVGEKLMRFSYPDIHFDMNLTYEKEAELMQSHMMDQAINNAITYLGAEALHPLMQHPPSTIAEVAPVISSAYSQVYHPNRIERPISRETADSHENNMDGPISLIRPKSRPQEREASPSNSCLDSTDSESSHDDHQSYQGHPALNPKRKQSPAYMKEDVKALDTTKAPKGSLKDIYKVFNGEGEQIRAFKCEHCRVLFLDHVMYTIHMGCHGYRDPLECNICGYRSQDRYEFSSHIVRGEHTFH
T3 sequence (Q96SW2 whole entry): as the sequence (Q96SW2 whole entry) above
T3 sequence (Q16531 whole entry partner): as the sequence (Q16531 whole entry partner) above
T1 sequence (Q96SW2 whole entry): as the sequence (Q96SW2 whole entry) above
T2 sequence (P30291 whole entry): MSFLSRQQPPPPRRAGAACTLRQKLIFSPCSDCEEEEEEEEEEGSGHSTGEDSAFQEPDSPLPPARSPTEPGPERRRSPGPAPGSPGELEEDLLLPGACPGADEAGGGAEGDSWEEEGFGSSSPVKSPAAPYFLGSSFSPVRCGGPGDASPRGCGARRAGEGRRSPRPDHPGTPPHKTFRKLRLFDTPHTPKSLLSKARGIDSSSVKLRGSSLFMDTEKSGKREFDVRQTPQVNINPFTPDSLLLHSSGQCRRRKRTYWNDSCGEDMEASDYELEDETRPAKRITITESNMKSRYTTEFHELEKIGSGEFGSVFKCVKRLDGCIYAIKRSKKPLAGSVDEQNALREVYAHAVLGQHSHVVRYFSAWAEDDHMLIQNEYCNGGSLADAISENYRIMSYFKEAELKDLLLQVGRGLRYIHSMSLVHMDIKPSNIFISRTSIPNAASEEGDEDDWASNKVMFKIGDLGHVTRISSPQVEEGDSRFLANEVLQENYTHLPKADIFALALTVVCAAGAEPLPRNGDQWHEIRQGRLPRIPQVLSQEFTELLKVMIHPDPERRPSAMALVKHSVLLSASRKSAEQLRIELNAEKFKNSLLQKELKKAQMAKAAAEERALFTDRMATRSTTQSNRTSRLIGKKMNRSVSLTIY
T2 sequence (Q96SW2 whole entry): as the sequence (Q96SW2 whole entry) above
T2 sequence (Q16531 whole entry partner): as the sequence (Q16531 whole entry partner) above
T6 sequence (Q13422 whole entry): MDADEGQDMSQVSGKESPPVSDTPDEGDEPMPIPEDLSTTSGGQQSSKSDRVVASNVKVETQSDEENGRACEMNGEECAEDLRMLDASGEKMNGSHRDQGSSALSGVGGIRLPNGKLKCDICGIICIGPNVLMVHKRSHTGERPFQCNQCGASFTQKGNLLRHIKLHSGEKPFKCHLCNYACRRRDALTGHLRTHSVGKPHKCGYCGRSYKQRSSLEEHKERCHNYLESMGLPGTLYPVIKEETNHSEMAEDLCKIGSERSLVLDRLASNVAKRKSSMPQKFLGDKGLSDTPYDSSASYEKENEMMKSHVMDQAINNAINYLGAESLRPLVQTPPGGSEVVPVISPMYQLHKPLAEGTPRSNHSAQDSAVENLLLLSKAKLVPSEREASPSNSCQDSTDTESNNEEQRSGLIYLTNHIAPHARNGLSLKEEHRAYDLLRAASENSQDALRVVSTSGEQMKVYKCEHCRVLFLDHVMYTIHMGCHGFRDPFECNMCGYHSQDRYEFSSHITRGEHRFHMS
T6 sequence (Q96SW2 whole entry): as the sequence (Q96SW2 whole entry) above
T6 sequence (Q16531 whole entry partner): as the sequence (Q16531 whole entry partner) above
T4 sequence (Q9UKT9 whole entry): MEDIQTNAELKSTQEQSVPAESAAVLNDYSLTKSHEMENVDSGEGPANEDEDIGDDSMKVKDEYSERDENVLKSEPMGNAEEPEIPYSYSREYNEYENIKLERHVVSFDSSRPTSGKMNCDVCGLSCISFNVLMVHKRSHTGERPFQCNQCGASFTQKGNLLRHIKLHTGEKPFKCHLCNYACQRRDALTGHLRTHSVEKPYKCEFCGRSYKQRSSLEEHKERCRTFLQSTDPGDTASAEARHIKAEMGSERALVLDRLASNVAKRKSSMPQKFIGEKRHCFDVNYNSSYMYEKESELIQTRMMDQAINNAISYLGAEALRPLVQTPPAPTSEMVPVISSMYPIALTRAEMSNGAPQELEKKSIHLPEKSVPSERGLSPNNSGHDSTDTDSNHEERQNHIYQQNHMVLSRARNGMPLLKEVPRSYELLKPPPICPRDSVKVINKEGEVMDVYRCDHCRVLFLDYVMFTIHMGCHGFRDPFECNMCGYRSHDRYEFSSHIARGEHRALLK
T4 sequence (Q96SW2 whole entry): as the sequence (Q96SW2 whole entry) above
T4 sequence (Q16531 whole entry partner): as the sequence (Q16531 whole entry partner) above

| Structure (SMILES) | inhibition at 0.5 µM [1] | inhibition at 2 µM [1] | inhibition at 0.01 µM [2] | inhibition at 0.5 µM [2] | Wee1 substrate protein remaining % (WEE1) | IKZF2 substrate protein remaining % (IKZF2) | IKZF3 substrate protein remaining % (IKZF3) | CK1α substrate protein remaining % (CK1α) | IKZF 1 substrate protein remaining % (IKZF1) | GSPT1 substrate protein remaining % (GSPT1) |
| --- | --- | --- | --- | --- | --- | --- | --- | --- | --- | --- |
| Cc1csc2ncnc(N3CCN(Cc4ccc5c(c4)CN(C4CCC(=O)NC4=O)C5=S)CC3)c12 (stereo not shown) [GT-09281, 3-(5-((4-(5-methylthieno[2,3-d]pyrimidin-4-yl)piperazin-1-yl)methyl)-1-thioxoisoindolin-2-yl)piperidine-2,6-dione] | 80 to 100% | 80 to 100% | 25 to 30% | 40 to 60% |  |  |  |  |  |  |
| O=C1CCC(N2Cc3cc(CN4CCN(c5ccnc(F)c5F)CC4)ccc3C2=S)C(=O)N1 (stereo not shown) [GT-09242, 3-(5-((4-(2,3-difluoropyridin-4-yl)piperazin-1-yl)methyl)-1-thioxoisoindolin-2-yl)piperidine-2,6-dione] | 60 to 80% | 80 to 100% | 60 to 80% | 30 to 40% |  |  |  |  |  |  |
| CC1(C)CCC(CN2CCN(Cc3cccc4c3CN(C3CCC(=O)NC3=O)C4=S)CC2)=C(c2ccc(Cl)cc2)C1 (stereo not shown) [GT-08303, 3-(4-((4-((4'-chloro-5,5-dimethyl-3,4,5,6-tetrahydro-[1,1'-biphenyl]-2-yl)methyl)piperazin-1-yl)methyl)-1-thioxoisoindolin-2-yl)piperidine-2,6-dione] | 30 to 40% | 60 to 80% | 40 to 60% | 40 to 60% |  |  |  |  |  |  |
| O=C1CCC(N2Cc3c(CN4CCN(c5ccc(Cl)cc5Cl)CC4)cccc3C2=S)C(=O)N1 (stereo not shown) [GT-08500, 3-(4-((4-(2,4-dichlorophenyl)piperazin-1-yl)methyl)-1-thioxoisoindolin-2-yl)piperidine-2,6-dione] | 40 to 53% | 60 to 80% | 30 to 40% | 40 to 60% | A (0% ≤ substrate protein remaining % ≤ 80%) | B (80%< substrate protein remaining %≤ 100%) | B (80%< substrate protein remaining %≤ 100%) | B (80%< substrate protein remaining %≤ 100%) | B (80%< substrate protein remaining %≤ 100%) | A (0% ≤ substrate protein remaining % ≤ 80%) |
| O=C1CCC(N2Cc3cc(CN4CCN(c5cccc(C(F)(F)F)n5)CC4)ccc3C2=S)C(=O)N1 (stereo not shown) [GT-09224, 3-(1-thioxo-5-((4-(6-(trifluoromethyl)pyridin-2-yl)piperazin-1-yl)methyl)isoindolin-2-yl)piperidine-2,6-dione] | 60 to 80% | 80 to 100% | -5 to 0% | 40 to 60% | B (80%< substrate protein remaining %≤ 100%) | B (80%< substrate protein remaining %≤ 100%) | A (0% ≤ substrate protein remaining % ≤ 80%) | A (0% ≤ substrate protein remaining % ≤ 80%) | B (80%< substrate protein remaining %≤ 100%) | A (0% ≤ substrate protein remaining % ≤ 80%) |
| O=C1CCC(N2Cc3cc(CN4CCC(c5ccnc(F)c5F)CC4)ccc3C2=S)C(=O)N1 (stereo not shown) [GT-08473, 3-(5-((4-(2,3-difluoropyridin-4-yl)piperidin-1-yl)methyl)-1-thioxoisoindolin-2-yl)piperidine-2,6-dione] | 60 to 80% | 80 to 100% | 40 to 60% | 40 to 60% |  |  |  |  |  |  |
| O=C1CCC(N2Cc3cc(CN4CCN(c5cncc(Cl)c5Cl)CC4)ccc3C2=S)C(=O)N1 (stereo not shown) [GT-09231, 3-(5-((4-(4,5-dichloropyridin-3-yl)piperazin-1-yl)methyl)-1-thioxoisoindolin-2-yl)piperidine-2,6-dione] | 60 to 80% | 80 to 100% | 30 to 40% | 40 to 60% | B (80%< substrate protein remaining %≤ 100%) | A (0% ≤ substrate protein remaining % ≤ 80%) | A (0% ≤ substrate protein remaining % ≤ 80%) | A (0% ≤ substrate protein remaining % ≤ 80%) | A (0% ≤ substrate protein remaining % ≤ 80%) | A (0% ≤ substrate protein remaining % ≤ 80%) |
